According to US12285392B2, “Method for modulating metabolism” (Brightseed, Inc., priority 2018, dated 2025):

Experiment: Hepatic microsome stability assay, human
Format: in vitro ADME
Procedure: Hepatic Microsome Assay. Hepatic microsomes stability assays were performed in accordance with known methods (Peddibhotla, et al. (2013) ACS Med. Chem. Lett. 4:846-851). Briefly, 3 μL of 25 μM compound solution in acetonitrile were incubated with 123 μL of mouse, human or rat liver microsomes (Xenotech, Kansas City, Kans.). […] The microsomal concentrations used were 1.0 mg/mL. Compounds were incubated in microsomes for 0, 5, 15, 30 and 60 minutes. The reactions were stopped by the addition of ice cold ACN and the reaction mixtures were centrifuged at 10,000 g for 10 minutes before the supernatant was removed for analysis. A 10 μL portion of the resulting extract was injected on a Thermo HPLC system equipped with PAL CTC plate sampler (96-well plate), Dionex Ultimate 3000 binary pump (flow rate at 0.600 mL/min), Dionex Ultimate 3000 thermostatted column compartment (temperature at 40° C.), Thermo Endura Mass Spectrometer (ESI source), using a Thermo Scientific Accucore C18 (2.6 μM, 2.1×50 mm) column. A gradient was run starting at 95% H2O (0.1% formic acid) and 5% ACN (0.1% formic acid) during the first 0.5 min, then under gradient condition of 5-100% ACN (0.1% formic acid) from minute 0.5 to 3.5, finishing at 95% H2O (0.1% formic acid) and 5% ACN (0.1% formic acid) over 0.5 min, with another 1 min at 95:5 to re-equilibrate.

SMILES: O=C(/C=C/c1ccc(O)c(O)c1)NCCc1ccc(O)cc1 [N-trans-caffeoyltyramine]
- Apparent major biotransformation pathway (human microsomes): oxidation of the left-hand aryl ring
- % Remaining (human microsomes, 1 μM): 55.3%
- % Remaining (human microsomes, 10 μM): 85.4%
- Stability in hepatic microsomes (human, rat and mouse hepatic microsomes): stable
